One assay addresses mutant KRAS (G12D) (Homo sapiens, UniProt P01116, G12D). Kind of assay: Surface plasmon resonance (SPR) binding to mutant KRAS (G12D). Particulars: SPR Biacore 8K+, Single Cycle Kinetics, 30° C., 10 μM GDP, 1:1 binding model; read-out: Dissociation Constant KD (nM) for Mutant KRAS (G12D). In general terms: Surface plasmon resonance follows binding to a sensor surface in real time, without labels.

The next assay has as its target wild type KRAS(WT) (Homo sapiens, UniProt P01116). Kind of assay: Surface plasmon resonance (SPR) binding to wild type KRAS. Particulars: SPR Biacore 8K+, Single Cycle Kinetics, 30° C., 10 μM GDP, 1:1 binding model; read-out: Dissociation Constant KD (nM) for Wild Type KRAS.

Data on six molecules can be found in US20240239842A1 (CHUGAI SEIYAKU KABUSHIKI KAISHA, priority 2021, published 2024).

Starred links: 1 amine or outer side, 2 acyl side, 3 side chain; linkers in the order of their positions; H or OH if unused. Positions of bridges follow the written chain, without caps; N, C: chain ends. Non-standard residues stand in square brackets, D forms with d. Residues, ends and D or L forms follow the SMILES beside them. *: point of attachment. hPhe(3-Cl-4-CF3) = N[C@@H](CCc1ccc(C(F)(F)F)c(Cl)c1)C(=O)O; X1 = CN([C@@H](CC1CCC(F)(F)CC1)C(=O)[*:2])[*:1]; NMePhe(4-Me) = CN[C@@H](Cc1ccc(C)cc1)C(=O)O; X4 = C#Cc1cccc(C[C@H](N[*:1])C(=O)[*:2])c1; X5 = O=C([C@H](Cc1cccc(F)c1F)N[*:1])[*:2]; Phe(3-I) = N[C@@H](Cc1cccc(I)c1)C(=O)O; X2 = CC(C)=CC[C@H](N[*:1])C(=O)[*:2]; NMeY = CN[C@@H](Cc1ccc(O)cc1)C(=O)O; NMeCha = CN[C@@H](CC1CCCCC1)C(=O)O; X6 = O=C(CN(CCN1CCNCC1)[*:1])[*:2]; X3 = C[C@H](CN(C)[*:1])C(=O)[*:2]; NMeChg = CN[C@H](C(=O)O)C1CCCCC1; NMeF = CN[C@@H](Cc1ccccc1)C(=O)O; Gly(cBu) = N[C@H](C(=O)O)C1CCC1; NMeD = CN[C@@H](CC(=O)O)C(=O)O; NMeL = CN[C@@H](CC(C)C)C(=O)O; NMehSer = CN[C@@H](CCO)C(=O)O; NMeV = CN[C@H](C(=O)O)C(C)C; d(β3hA) = C[C@@H](N)CC(=O)O; NMeS = CN[C@@H](CO)C(=O)O; Pip = O=C(O)[C@@H]1CCCCN1; NMeA = CN[C@@H](C)C(=O)O; NMeAib = CNC(C)(C)C(=O)O; Nle = CCCC[C@H](N)C(=O)O; Piperidide = C1CCN(*)CC1; Ac5c = NC1(C(=O)O)CCCC1; Aze = O=C(O)[C@@H]1CCN1; Sar = CNCC(=O)O

Regarding `CC[C@H](C)[C@@H]1NC(=O)[C@H](CC(C)C)N(C)C(=O)C[C@@H](C)NC(=O)[C@H](C(C)C)N(C)C(=O)C2(CCCC2)NC(=O)[C@@H]2CCCN2C(=O)[C@H](CCc2ccc(C(F)(F)F)c(Cl)c2)NC(=O)CN(C)C(=O)[C@H](CC2CCCCC2)N(C)C(=O)[C@@H]2CCN2C(=O)[C@H](C)N(C)C1=O` [Compound 6, (3S,9S,12S,17S,20S,23S,27R,30S,36S)-3-[2-[3-chloro-4-(trifluoromethyl)phenyl]ethyl]-9-(cyclohexylmethyl)-23-isobutyl-30-isopropyl-7,10,17,18,24,27,31-heptamethyl-20-[(1S)-1-methylpropyl]spiro[1,4,7,10,15,18,21,24,28,31,34-undecazatricyclo[34.3.0.012,15]nonatriacontane-33,1′-cyclopentane]-2,5,8,11,16,19,22,25,29,32,35-undecaone] (cyclo([Ac5c][NMeV][d(β3hA)][NMeL]I[NMeA][Aze][NMeCha][Sar][hPhe(3-Cl-4-CF3)]P)), the Kd (in general, the equilibrium constant for the complex coming apart) turned out to be 21 nM at mutant KRAS (G12D) and 16 nM at wild type KRAS(WT).
On the same counts, the results for `CCCC[C@@H]1NC(=O)[C@H](Cc2cccc(I)c2)NC(=O)CN(C)C(=O)[C@H](Cc2ccc(C)cc2)N(C)C(=O)CN(C)C(=O)CN(C)C(=O)[C@H]([C@@H](C)CC)NC(=O)[C@H](CCOC)N(C)C(=O)C[C@@H](C(=O)N2CCCCC2)N(C)C(=O)[C@H](CC(C)C)NC(=O)[C@H](COC)N(C)C1=O` [Compound 3, (3S,6S,9S,12S,18S,27S,30S,34S)-9-butyl-12-[(3-iodophenyl)methyl]-3-isobutyl-30-(2-methoxyethyl)-6-(methoxymethyl)-1,7,16,19,22,25,31-heptamethyl-27-[(1S)-1-methylpropyl]-34-(piperidine-1-carbonyl)-18-(p-tolylmethyl)-1,4,7,10,13,16,19,22,25,28,31-undecazacyclotetratriacontane-2,5,8,11,14,17,20,23,26,29,32-undecanone] ([NMehSer](Me)I[Sar][Sar][NMePhe(4-Me)][Sar][Phe(3-I)][Nle][NMeS](Me)L[NMeD]-Piperidide; lactam N-11) are 2.9 nM and 43 nM.
For `CC(C)=CC[C@@H]1NC(=O)[C@H](Cc2cccc(I)c2)NC(=O)CN(C)C(=O)[C@H](CC2CCC(F)(F)CC2)N(C)C(=O)[C@@H]2CCN2C(=O)[C@@H]2CCCCN2C(=O)[C@H](C2CCC2)NC(=O)[C@H](CC(C)C)N(C)C(=O)C[C@@H](C(=O)N2CCCCC2)N(C)C(=O)[C@H](CC(C)C)NC(=O)[C@H](Cc2ccccc2)N(C)C1=O` [Compound 2, (1S,6S,9S,15S,18S,21S,24S,27S,31S,34S)-21-benzyl-34-cyclobutyl-9-[(4,4-difluorocyclohexyl)methyl]-15-[(3-iodophenyl)methyl]-24,31-diisobutyl-8,11,20,26,30-pentamethyl-18-(3-methylbut-2-enyl)-27-(piperidine-1-carbonyl)-3,8,11,14,17,20,23,26,30,33,36-undecazatricyclo[34.4.0.03,6]tetracontane-2,7,10,13,16,19,22,25,29,32,35-undecanone] ([NMeL][Gly(cBu)][Pip][Aze][X1][Sar][Phe(3-I)][X2][NMeF]L[NMeD]-Piperidide; lactam N-11), in that order: 4.4 nM and 44 nM.
For `CCCC[C@@H]1NC(=O)[C@H](Cc2cccc(F)c2F)NC(=O)CN(C)C(=O)[C@H](Cc2ccc(OC)cc2)N(C)C(=O)[C@@H]2CCN2C(=O)[C@@H]2CCCCN2C(=O)[C@H](C2CCC2)NC(=O)[C@H](CC(C)C)N(C)C(=O)C[C@@H](C(=O)N2CCCCC2)N(C)C(=O)[C@H](CC(C)C)NC(=O)C(C)(C)N(C)C1=O` [Compound 5, (1S,6S,9S,15S,18S,24S,27S,31S,34S)-18-butyl-34-cyclobutyl-15-[(2,3-difluorophenyl)methyl]-24,31-diisobutyl-9-[(4-methoxyphenyl)methyl]-8,11,20,21,21,26,30-heptamethyl-27-(piperidine-1-carbonyl)-3,8,11,14,17,20,23,26,30,33,36-undecazatricyclo[34.4.0.03,6]tetracontane-2,7,10,13,16,19,22,25,29,32,35-undecaone] ([NMeL][Gly(cBu)][Pip][Aze][NMeY](Me)[Sar][X5][Nle][NMeAib]L[NMeD]-Piperidide; lactam N-11), in that order: 3.6 nM and 19 nM.
As to `C#Cc1cccc(C[C@@H]2NC(=O)CN(C)C(=O)[C@H](CC3CCCCC3)N(C)C(=O)CN(C)C(=O)CN(C)C(=O)[C@H]([C@@H](C)CC)NC(=O)[C@H](C)CN(C)C(=O)C[C@@H](C(=O)N3CCCCC3)N(C)C(=O)[C@H](CC(C)C)NC(=O)C(C)(C)N(C)C(=O)[C@H](Cc3ccc(OC)cc3)NC2=O)c1` [Compound 4, (3S,9S,12S,18S,27S,30R,35S)-18-(cyclohexylmethyl)-12-[(3-ethynylphenyl)methyl]-3-isobutyl-9-[(4-methoxyphenyl)methyl]-1,6,6,7,16,19,22,25,30,32-decamethyl-27-[(1S)-1-methylpropyl]-35-(piperidine-1-carbonyl)-1,4,7,10,13,16,19,22,25,28,32-undecazacyclopentatriacontane-2,5,8,11,14,17,20,23,26,29,33-undecaone] ([X3]I[Sar][Sar][NMeCha][Sar][X4]Y(Me)[NMeAib]L[NMeD]-Piperidide; lactam N-11), the Kd was 1.5 nM on mutant KRAS (G12D) and 23 nM at wild type KRAS(WT).
Consider `CC[C@H](C)[C@@H]1NC(=O)[C@H](CC(C)C)N(C)C(=O)C[C@@H](C(=O)N2CCCCC2)N(C)C(=O)[C@H](C2CCCCC2)N(C)C(=O)C2(CCCC2)NC(=O)CN(CCN2CCNCC2)C(=O)[C@H](CCc2ccc(C(F)(F)F)c(Cl)c2)NC(=O)CN(C)C(=O)[C@H](CC2CCCCC2)N(C)C(=O)CN(C)C(=O)CN(C)C1=O` [Compound 7, (11S,17S,26S,29S,33S,36S)-11-[2-[3-chloro-4-(trifluoromethyl)phenyl]ethyl]-36-cyclohexyl-17-(cyclohexylmethyl)-29-isobutyl-15,18,21,24,30,34,37-heptamethyl-26-[(1 S)-1-methylpropyl]-9-(2-piperazine-1-ylethyl)-33-(piperidine-1-carbonyl)-6,9,12,15,18,21,24,27,30,34,37-undecazaspiro[4.33]octatriacontane-7,10,13,16,19,22,25,28,31,35,38-undecaone, reference compound] ([NMeL]I[Sar][Sar][NMeCha][Sar][hPhe(3-Cl-4-CF3)][X6][Ac5c][NMeChg][NMeD]-Piperidide; lactam N-11), for which the values for the Kd at mutant KRAS (G12D) and at wild type KRAS(WT) were 0.18 nM and 0.94 nM, respectively.
